Assay results as given in patent US12357695B2, “Peptides and nanoparticles for intracellular delivery of molecules” (AADIGEN, LLC, priority 2019, dated 2025).
Square brackets hold non-standard residues; d marks the D form. Ends that are not written are not given here. Stearyl = stearyl group covalently linked to the N-terminus; Aun = NCCCCCCCCCCC(=O)O; βAla = NCCC(=O)O

Experiments:
mice = test: In vivo delivery of pGL4 plasmid DNA, intravenous administration, bioluminescence imaging; conditions: 5 μg pGL4 plasmid; for increase of luciferase expression / efficiency relative to ADGN-100: all / different tissues
Procedure: FIGS. 6A-6C show the potency of ADGN-peptide variants for in vivo delivery of Luciferase expressing plasmid pGL4 via intravenous administration in mice. ADGN-peptide/pGL4 particles containing 5 μg plasmid DNA were formed in sterile water, and then diluted in 5% sucrose. Mice received IV injection of 100 μl ADGN-peptide/plasmid complexes. pGL4 Luciferase expression was monitored by bioluminescence imaging after 12 h, 24h, 48h and 72h. […] Results were then expressed as values relative to day 0.
Stable ADGN-peptides/pGL4.11 DNA were evaluated for in vivo delivery of Luciferase mRNA via intravenous and intramuscular administrations. Animals were treated with single dose of pGL4.11 plasmid DNA of 5 μg. via IV and 2.5 μg via intramuscular administration.
pGL4.11 DNA plasmid (5 μg) in sterile water (GIBCO) were mixed with ADGN peptide (sterile water), volume for each sample was adjusted to 100 μl, with sterile water containing 5% Sucrose. Samples were mixed gently with vortex for 1 minute at low speed and incubated for 30 min at room temperature. Samples were filtered on 0.45 μm PES filters prior administration. For IV administration Mice received 100 μl IV injection of either ADGN-106/pGL4, ADGN-100/pGL4, ADGN-100RI/pGL4, ADGN-100-stearyl/PGL4, ADGN-100Hydro1/PGL4, ADGN-100Hydro2/PGL4, ADGN100 Hydro6/PGL4 or ADGN/PGL4 complexes containing 10% or 20% of ADGN-100PEG (3 animals per group). As control, mice from group 3 (2 animals per group) received IV injection of 100 μl of naked pGL4 plasmids (5 μg).
Luciferase expression was monitored by bioluminescence. Bioluminescence imaging was performed after 12, 24, 48 and 72 hrs. Mice received an i.p. injection of 150 μg/g luciferin for noninvasive bioluminescence imaging (IVIS Kinetic; PerkinElmer, Waltham, MA, USA).

A375/Luc cells = test: Cellular delivery of siRNA targeting Luciferase, luciferase silencing at 48 hrs; type: cell-based; conditions: for reduction of ADGN-100 or ADGN-106 efficiency by modification / reduction of level of luciferase (siRNA mediated silencing): absence of serum treatment; for reduction of efficiency / siRNA mediated luciferase silencing in the presence of serum: complexes incubated 3 hrs in 25% serum; for reduction of luciferase expression level: presence of serum
Procedure: FIGS. 3A-3C show luciferase expression in A375/Luc cells treated with ADGN-peptide/siRNA complexes. A375/Luc cells cultured in 48 well plates were transfected with ADGN-peptide nanoparticles. ADGN-100, ADGN-106, ADGN-100RI, ADGN-106RI, ADGN-100 Stearyl, ADGN-Hydro1, ADGN-Hydro2, ADGN-Hydro3, ADGN-Hydro4, ADGN-Hydro5, ADGN-Hydro6 and ADGN-peptide/ADGN-100PEG 10% nanoparticles containing 10 nM or 25 nM siRNA were formed in sterile water, diluted in sterile water containing 5% Sucrose and filtered with 0.45 μm PES filters. FIG. 3C impact of peGylated ADGN-100 on the transfection efficiency. siRNA Luc (10 nM and 25 nM) were associated to ADGN-100 solution containing 5 to 50% of ADGN-100-PEG or to ADGN-100PEG. ADGN/siRNA complexes were incubated for 3 hrs in the presence of 25% serum prior transfection. Luciferase expression was monitored 48 hours post transfection and results were reported as RLU (luminescence):mg of protein.
Complex formation with siRNA. The following protocols were used for the transfection of 2-5 106 Cells or Cells at confluency of about 70-80% cultured in 24 well plates. ADGN peptide/siRNA Luc particles were prepared at a 20:1 molar ratio of ADGN-Peptide/pGL4. using 20 nM siRNA. The siRNA duplex (10 and 25 nM) was diluted in 20 μl of sterile water (GIBCO) at room temperature. 1.5 or 3 μl of a Final Peptide Solution (55 μM) was added to obtain a total volume of 20 μl. The volume was adjusted to 50 μl with sterile water and was mixed gently with vortex 1 min low speed and incubated 30 min at room temperature. Then the volume was made up to 100 μl by adding sterile water containing 5% sucrose, and the solution was mixed gently with vortex 1 min low speed and incubate 5 min at 37° C. and then was proceeded to cell transfection.
Transfection protocol. Protocol is reported for 24 well plate format. Cells were cultured in Dulbecco's Modified Eagle's Medium (DMEM), supplemented with 2 mM glutamine, 1% antibiotics (streptomycin 10,000 μg/mL, penicillin, 10,000 IU/mL) and 10% (w/v) foetal calf serum (FCS), at 37° C. in a humidified atmosphere containing 5% CO2. 24 well plates seeded with 150,000 cells the day prior to transfection were grown to 50-60% confluence and set up to be at about 70% confluences at the time of transfection. Before transfection, cells were washed twice with DMEM. Cells were then overlaid with 0.1 ml of ADGN-peptide/cargo complex solution containing 0.25 μg mRNA, 0.15 μg plasmid DNA or 10-25 nM siRNA, mixed gently, and incubated for 10 min at 37° C. 0.2 mL of fresh DMEM, were added and cells were incubated for 20 min at 37° C. 1 mL of complete DMEM containing 15% FCS were then added in order to reach a final FCS concentration of 10%, without removing the overlay of ADGN-peptide/cargo complexes. Cells were returned to the incubator (37° C., 5% CO2) and 72 hrs post transfection.
ADGN-peptides were evaluated for cellular delivery of siRNA duplex targeting Luciferase in A375/Luc cells. siRNA targeting luciferase (10 and 25 nM) in sterile water (GIBCO) were mixed with ADGN-100, ADGN-100RI, ADGN-106, ADGN-106RI, ADGN-100 Stearyl, ADGN-100Hydro1, ADGN-100Hydro2, ADGN-100Hydro4, ADGN-100Hydro3, ADGN-100Hydro5 and ADGN-100Hydro6. ADGN-peptide/siRNA complexes were filtered with 0.45 μm PES filter. In order to evaluate the stability of the ADGN/siRNA complexes in high serum conditions, the complexes were incubated for 3 hrs in the presence of 25% serum, then A375/Luc cells were transfected and Luciferase expression was monitored at 48 hrs.

Ac-GYVS-Aun-KWRSALWRWRLWRVRSWSR-NH2 (Ac-GYVS[Aun]KWRSALWRWRLWRVRSWSR-NH2; SMILES CC(=O)NCC(=O)N[C@@H](Cc1ccc(O)cc1)C(=O)N[C@H](C(=O)N[C@@H](CO)C(=O)NCCCCCCCCCCC(=O)N[C@@H](CCCCN)C(=O)N[C@@H](Cc1c[nH]c2ccccc12)C(=O)N[C@@H](CCCNC(=N)N)C(=O)N[C@@H](CO)C(=O)N[C@@H](C)C(=O)N[C@@H](CC(C)C)C(=O)N[C@@H](Cc1c[nH]c2ccccc12)C(=O)N[C@@H](CCCNC(=N)N)C(=O)N[C@@H](Cc1c[nH]c2ccccc12)C(=O)N[C@@H](CCCNC(=N)N)C(=O)N[C@@H](CC(C)C)C(=O)N[C@@H](Cc1c[nH]c2ccccc12)C(=O)N[C@@H](CCCNC(=N)N)C(=O)N[C@H](C(=O)N[C@@H](CCCNC(=N)N)C(=O)N[C@@H](CO)C(=O)N[C@@H](Cc1c[nH]c2ccccc12)C(=O)N[C@@H](CO)C(=O)N[C@@H](CCCNC(=N)N)C(N)=O)C(C)C)C(C)C) [ADGN-100 hydro-6]
luciferase expression and tissues (mice): mainly observed in the liver and at lower level in the lung and the kidney
increase of luciferase expression / efficiency relative to ADGN-100 (mice): 3.4 fold
reduction of ADGN-100 or ADGN-106 efficiency by modification (A375/Luc cells): do not affected
reduction of efficiency / siRNA mediated luciferase silencing in the presence of serum (A375/Luc cells): 20%

βAKWRSAGWRWRLW RVRSWSR (AKWRSAGWRWRLWRVRSWSR; N-terminal beta-alanine; VARIANT 1 beta-A) [ADGN-100]
luciferase expression and tissues (mice): mainly observed in the liver and at lower level in the lung and the kidney
reduction of level of luciferase (siRNA mediated silencing) (A375/Luc cells; 10 nM siRNA): 78%
reduction of level of luciferase (siRNA mediated silencing) (A375/Luc cells; 25 nM siRNA): 93%
reduction of efficiency / siRNA mediated luciferase silencing in the presence of serum (A375/Luc cells): 90%

rswsrvrwlrwrwgasrwk ([dR][dS][dW][dS][dR][dV][dR][dW][dL][dR][dW][dR][dW]G[dA][dS][dR][dW][dK]; also: retro-inverso) [ADGN-100-RI]
luciferase expression and tissues (mice): mainly observed in the liver and at lower level in the lung and the kidney
increase of luciferase expression / efficiency relative to ADGN-100 (mice): 4 fold
reduction of luciferase expression level (A375/Luc cells; 10 nM siRNA): 77%
reduction of luciferase expression level (A375/Luc cells; 25 nM siRNA): 95%
reduction of ADGN-100 or ADGN-106 efficiency by modification (A375/Luc cells): do not affected
reduction of efficiency / siRNA mediated luciferase silencing in the presence of serum (A375/Luc cells): not affected by the presence of serum

akwllrwlsrwlrwlarwlr ([dA][dK][dW][dL][dL][dR][dW][dL][dS][dR][dW][dL][dR][dW][dL][dA][dR][dW][dL][dR]; also: retro-inverso) [ADGN-106-RI]
reduction of luciferase expression level (A375/Luc cells; 10 nM siRNA): 77%
reduction of luciferase expression level (A375/Luc cells; 25 nM siRNA): 95%
reduction of ADGN-100 or ADGN-106 efficiency by modification (A375/Luc cells): do not affected
reduction of efficiency / siRNA mediated luciferase silencing in the presence of serum (A375/Luc cells): not affected by the presence of serum

βALWRALWRLWRSLWRLLWKA ([βAla]LWRALWRLWRSLWRLLWKA) [ADGN-106]
luciferase expression and tissues (mice): no or minimal expression
reduction of level of luciferase (siRNA mediated silencing) (A375/Luc cells; 10 nM siRNA): 78%
reduction of level of luciferase (siRNA mediated silencing) (A375/Luc cells; 25 nM siRNA): 93%
reduction of efficiency / siRNA mediated luciferase silencing in the presence of serum (A375/Luc cells): 90%

Ac-GYVS-(G)4-KWRSALWRWRLWRVRSWSR-NH2 (Ac-GYVSGGGGKWRSALWRWRLWRVRSWSR-NH2) [ADGN-100 hydro-2]
luciferase expression and tissues (mice): negligible luciferase expression

Stearyl-βA-KWRSALWRWRLWRVRSWSR-NH2 (Stearyl-[βAla]KWRSALWRWRLWRVRSWSR-NH2; not fully specified; printed as Stearyl-βA-KWRSALWRWRLWRVRSWSR-NH2) [ADGN-100 Stearyl]
luciferase expression and tissues (mice): mainly observed in the liver and at lower level in the lung and the kidney
increase of luciferase expression / efficiency relative to ADGN-100 (mice): 2.7 fold
reduction of ADGN-100 or ADGN-106 efficiency by modification (A375/Luc cells): do not affected
reduction of efficiency / siRNA mediated luciferase silencing in the presence of serum (A375/Luc cells): 20%
